Reference: PubChem BioAssay (NCI)
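Step 1: Grow cells in 96-well plates. Step 2: Expose to compound for 48 hours at 5 concentrations. Step 3: Interpolate endpoints linearly; if unreached, use highest concentration. GI50: concentration for 50% inhibition of growth. TGI: concentration producing complete growth inhibition.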

Key:
Test in all cases: inhibition of tumour cell growth, NCI panel, 48 h
UO-31 renal = system: UO-31 renal
HT29 colon = system: HT29 colon
SK-MEL-5 melanoma = system: SK-MEL-5 melanoma
OVCAR-5 ovarian = system: OVCAR-5 ovarian
SNB-75 CNS = system: SNB-75 CNS
UACC-62 melanoma = system: UACC-62 melanoma
NCI-H23 lung = system: NCI-H23 lung
SR leukemia = system: SR leukemia
IGROV1 ovarian = system: IGROV1 ovarian
MALME-3M melanoma = system: MALME-3M melanoma

SMILES	GI50 (UO-31 renal) [µM]	TGI (UO-31 renal) [µM]	GI50 (HT29 colon) [nM]	TGI (HT29 colon) [µM]	GI50 (SK-MEL-5 melanoma) [nM]	TGI (SK-MEL-5 melanoma) [µM]	GI50 (OVCAR-5 ovarian) [µM]	TGI (OVCAR-5 ovarian) [µM]	GI50 (SNB-75 CNS) [nM]	TGI (SNB-75 CNS) [µM]	GI50 (UACC-62 melanoma) [nM]	TGI (UACC-62 melanoma) [µM]	GI50 (NCI-H23 lung) [nM]	TGI (NCI-H23 lung) [µM]	TGI (SR leukemia) [µM]	TGI (IGROV1 ovarian) [µM]	TGI (MALME-3M melanoma) [µM]	GI50 (SR leukemia) [µM]	GI50 (IGROV1 ovarian) [µM]	GI50 (MALME-3M melanoma) [nM]
CCCCCCCCCCCCCCCCCC[n+]1ccc2c(C)c3c(c(C)c2c1)c1cc(O)ccc1n3CC	3.39	18.7	1140	15.2	1340	2.85	4.38	24.8	2270	12	1290	3.38	912	6.57	–	–	–	–	–	–
NC(CSC1c2ccccc2-c2ccccc21)C(=O)O (stereo not drawn)	–	> 100	–	> 100	–	> 100	–	> 100	–	> 100	–	> 100	–	> 100	> 100	> 100	> 100	–	–	–
Fc1ccc(C2SCc3nc4ccccc4n32)c(F)c1 (stereo not drawn)	–	> 100	–	> 100	–	79.6	–	> 100	–	> 100	–	> 100	–	> 100	> 100	> 100	> 100	–	–	–
CC(C)NCCCn1c(Sc2cc3c(cc2I)OCO3)nc2c(N)ncnc21	0.323	7.13	38.1	> 83.2	462	18	3.02	> 100	727	> 100	368	> 41	89.7	> 100	> 100	3.52	2.12	0.0602	0.0885	124
O=C(NC1CCCCC1)NS(=O)(=O)c1ccc2c(c1)CCC2	–	> 100	–	–	–	–	–	> 100	–	> 100	–	> 100	–	> 100	> 100	> 100	> 100	–	–	–
O=C1NC(=O)C(N2C(=O)c3ccccc3C2=O)CC1O (stereo not drawn)	> 100	> 100	> 100000	> 100	–	–	> 100	> 100	> 100000	> 100	> 100000	> 100	> 100000	> 100	> 100	> 100	> 100	> 100	> 100	> 100000
O=c1[nH]c(=O)n(C2CC(O)C(COP(=O)(OCc3ccc([N+](=O)[O-])o3)N(CCCCCl)CC(O)CO)O2)cc1F (stereo not drawn)	0.174	> 100	1660	> 100	386	4.49	> 100	> 100	2820	> 100	138	–	2790	> 100	> 100	–	> 29.9	< 0.0269	–	207
CCOC(=O)C1=C(C)N(c2ccc(Cl)cc2)[C@]2(C#N)C(O)=C(Cl)C(Cl)=C(O)[C@]12C#N	53.8	> 100	51900	> 100	> 100000	> 100	–	–	26100	83	–	–	> 100000	> 100	> 100	> 100	> 100	20.6	> 100	> 100000
